Measurements taken from PubChem BioAssay AID190 (DTP/NCI, 2004).
Several values for one entry are separate records, joined by “and”; a condition that tells them apart may be missing. Equal values may be shown once. Toxic doses and inconclusive results are not listed. The calls were made as follows: active = survival T/C of 150% or more; inactive = T/C below 125% in these data.

System: AKR/Lw mice, AKR lymphoma ip, median survival T/C
Assay: NCI In Vivo Anticancer Drug Screen. Data for tumor model Lymphoma AKR (Transplanted) (intraperitoneal) in AKR/Lw mice
Conditions: endpoint: median survival time, higher = longer survival
Method: The antitumor activity of compounds was measured in mice bearing transplantable tumors. Survival or tumor size were measured and the results are expressed as the measurement made in the treated group (T) divided by the measurement made in the vehicle treated control group (C). The tumor model used in this assay is Lymphoma AKR (Transplanted) (intraperitoneal) in AKR/Lw mice

[1] = dose: 100.0 mg/kg/injection, schedule: Q01DX001 (ip), vehicle: Klucel (hydroxypropylcellulose) (HPC)
[2] = dose: 100.0 mg/kg/injection, schedule: Q04DX003 (ip), vehicle: Klucel (hydroxypropylcellulose) (HPC)
[3] = dose: 200.0 mg/kg/injection, schedule: Q01DX001 (ip), vehicle: Klucel (hydroxypropylcellulose) (HPC)
[4] = dose: 200.0 mg/kg/injection, schedule: Q04DX003 (ip), vehicle: Klucel (hydroxypropylcellulose) (HPC)
[5] = dose: 400.0 mg/kg/injection, schedule: Q01DX001 (ip), vehicle: Klucel (hydroxypropylcellulose) (HPC)
[6] = dose: 100.0 mg/kg/injection, schedule: Q01DX001 (ip), vehicle: saline
[7] = dose: 200.0 mg/kg/injection, schedule: Q01DX001 (ip), vehicle: saline
[8] = dose: 400.0 mg/kg/injection, schedule: Q01DX001 (ip), vehicle: saline

Measured: T/C

C[C@]12C=CC(=O)C=C1CC[C@@H]1[C@@H]2C(=O)C[C@@]2(C)[C@H]1CC[C@]2(O)C(=O)CO
inactive: dose: 1.5 mg/kg/injection, schedule: Q ##X008 (sc), vehicle: steriod suspending solution 108 % of control | dose: 1.5 mg/kg/injection, schedule: Q## X008 (sc), vehicle: steriod suspending solution 108 % of control | dose: 3.0 mg/kg/injection, schedule: Q ##X008 (sc), vehicle: steriod suspending solution 109 % of control | dose: 3.0 mg/kg/injection, schedule: Q## X008 (sc), vehicle: steriod suspending solution 109 % of control | dose: 5.0 mg/kg/injection, schedule: Q01DX009 (sc), vehicle: steriod suspending solution 97 % of control | dose: 6.0 mg/kg/injection, schedule: Q ##X008 (sc), vehicle: steriod suspending solution 106 % of control | dose: 6.0 mg/kg/injection, schedule: Q## X008 (sc), vehicle: steriod suspending solution 106 % of control | dose: 10.0 mg/kg/injection, schedule: Q01DX009 (sc), vehicle: steriod suspending solution 100 % of control | dose: 12.0 mg/kg/injection, schedule: Q ##X008 (sc), vehicle: steriod suspending solution 120 % of control | dose: 12.0 mg/kg/injection, schedule: Q## X008 (sc), vehicle: steriod suspending solution 120 % of control | dose: 12.5 mg/kg/injection, schedule: Q01DX001 (sc), vehicle: steriod suspending solution 108 % of control | dose: 12.5 mg/kg/injection, schedule: Q01DX008 (sc), vehicle: steriod suspending solution 94 % of control | dose: 12.5 mg/kg/injection, schedule: Q04DX003 (sc), vehicle: steriod suspending solution 112 % of control | dose: 12.5 mg/kg/injection, schedule: Q## X008 (sc), vehicle: steriod suspending solution 94 % of control | dose: 15.0 mg/kg/injection, schedule: Q04DX002 (sc), vehicle: water 96 % of control | dose: 20.0 mg/kg/injection, schedule: Q01DX009 (sc), vehicle: steriod suspending solution 108 % of control | dose: 25.0 mg/kg/injection, schedule: Q01DX001 (sc), vehicle: steriod suspending solution 108 % of control and 113 % of control | dose: 25.0 mg/kg/injection, schedule: Q01DX004 (sc), vehicle: steriod suspending solution 115 % of control | dose: 25.0 mg/kg/injection, schedule: Q01DX008 (sc), vehicle: steriod suspending solution 119 % of control | dose: 25.0 mg/kg/injection, schedule: Q01DX009 (sc), vehicle: Klucel (hydroxypropylcellulose) (HPC) 96 % of control | dose: 25.0 mg/kg/injection, schedule: Q01DX009 (sc), vehicle: steriod suspending solution 100 % of control | dose: 25.0 mg/kg/injection, schedule: Q04DX002 (sc), vehicle: steriod suspending solution 99 % of control and 100 % of control | dose: 25.0 mg/kg/injection, schedule: Q04DX003 (sc), vehicle: steriod suspending solution 87 % of control | dose: 25.0 mg/kg/injection, schedule: Q## X008 (sc), vehicle: steriod suspending solution 120 % of control | dose: 30.0 mg/kg/injection, schedule: Q04DX002 (sc), vehicle: water 94 % of control and 98 % of control | dose: 35.0 mg/kg/injection, schedule: Q01DX001 (sc), vehicle: steriod suspending solution 96 % of control | dose: 45.0 mg/kg/injection, schedule: Q01DX001 (sc), vehicle: steriod suspending solution 105 % of control | dose: 50.0 mg/kg/injection, schedule: Q01DX004 (sc), vehicle: steriod suspending solution 100 % of control | dose: 50.0 mg/kg/injection, schedule: Q01DX008 (sc), vehicle: steriod suspending solution 101 % of control | dose: 50.0 mg/kg/injection, schedule: Q01DX009 (ip), vehicle: water 115 % of control | dose: 50.0 mg/kg/injection, schedule: Q01DX009 (sc), vehicle: steriod suspending solution 110 % of control | dose: 50.0 mg/kg/injection, schedule: Q04DX002 (sc), vehicle: steriod suspending solution 109 % of control | dose: 50.0 mg/kg/injection, schedule: Q04DX003 (sc), vehicle: steriod suspending solution 100 % of control and 108 % of control and 112 % of control | dose: 50.0 mg/kg/injection, schedule: Q## X008 (sc), vehicle: steriod suspending solution 101 % of control | dose: 60.0 mg/kg/injection, schedule: Q04DX002 (sc), vehicle: water 110 % of control and 111 % of control | dose: 75.0 mg/kg/injection, schedule: Q01DX001 (sc), vehicle: steriod suspending solution 100 % of control | dose: 75.0 mg/kg/injection, schedule: Q04DX002 (sc), vehicle: steriod suspending solution 106 % of control | dose: 90.0 mg/kg/injection, schedule: Q01DX001 (sc), vehicle: steriod suspending solution 114 % of control | dose: 100.0 mg/kg/injection, schedule: Q01DX004 (sc), vehicle: steriod suspending solution 113 % of control | dose: 100.0 mg/kg/injection, schedule: Q01DX008 (sc), vehicle: steriod suspending solution 78 % of control | dose: 100.0 mg/kg/injection, schedule: Q01DX009 (ip), vehicle: water 118 % of control | dose: 100.0 mg/kg/injection, schedule: Q01DX009 (sc), vehicle: steriod suspending solution 102 % of control | dose: 100.0 mg/kg/injection, schedule: Q04DX002 (sc), vehicle: steriod suspending solution 110 % of control | dose: 150.0 mg/kg/injection, schedule: Q04DX003 (ip), vehicle: saline 92 % of control | dose: 150.0 mg/kg/injection, schedule: Q04DX003 (sc), vehicle: steriod suspending solution 105 % of control and 118 % of control and 121 % of control | dose: 180.0 mg/kg/injection, schedule: Q01DX001 (sc), vehicle: steriod suspending solution 120 % of control | dose: 200.0 mg/kg/injection, schedule: Q01DX001 (sc), vehicle: steriod suspending solution 93 % of control and 102 % of control (2×) | dose: 200.0 mg/kg/injection, schedule: Q01DX009 (sc), vehicle: steriod suspending solution 89 % of control | dose: 300.0 mg/kg/injection, schedule: Q04DX003 (ip), vehicle: saline 95 % of control | dose: 300.0 mg/kg/injection, schedule: Q04DX003 (sc), vehicle: steriod suspending solution 114 % of control and 115 % of control (2×) | dose: 400.0 mg/kg/injection, schedule: Q04DX003 (sc), vehicle: steriod suspending solution 95 % of control | dose: 500.0 mg/kg/injection, schedule: Q01DX001 (sc), vehicle: steriod suspending solution 95 % of control | dose: 600.0 mg/kg/injection, schedule: Q01DX001 (sc), vehicle: steriod suspending solution 102 % of control

Cc1ccc(S(=O)(=O)Nc2ccccc2-c2nc3c(Cl)ccc(Cl)c3c(=O)o2)cc1
inactive: [1] 96 % of control | [2] 90 % of control | [3] 103 % of control | [4] 90 % of control | [5] 93 % of control

COc1ccc(/C=C2\CCC3C(=O)CCCC3(C)C2=O)cc1 (configuration not stated)
inactive: [6] 90 % of control | [7] 100 % of control | [8] 97 % of control

COc1ccc(CCN2C(=O)CSC2=S)cc1OC
inactive: [1] 100 % of control | [5] 100 % of control

O=C(/C=C/c1cccc([N+](=O)[O-])c1)NCCBr
inactive: [1] 102 % of control | [3] 104 % of control | [5] 86 % of control

CC(C)(C)/[N+]([O-])=[N+](\[O-])C(C)(C)C (tested in a mixture with another compound)
inactive: [1] 95 % of control | [3] 97 % of control | [5] 100 % of control

Brc1cc(Br)c(-c2c(Br)cc(Br)cc2Br)c(Br)c1
inactive: [1] 103 % of control | [3] 100 % of control | [5] 96 % of control

O=S1(=O)CC(O)C(Cl)C1 (configuration not stated)
inactive: [6] 91 % of control | [7] 91 % of control | [8] 95 % of control

COc1cc2c(cc1OC)C(CNC(=O)/C=C/c1ccccc1)C2 (configuration not stated)
inactive: [1] 102 % of control | [2] 96 % of control | [3] 94 % of control | [4] 100 % of control | [5] 89 % of control | dose: 400.0 mg/kg/injection, schedule: Q04DX003 (ip), vehicle: Klucel (hydroxypropylcellulose) (HPC) 100 % of control

COc1cc2c(cc1OC)C1CCN3CCCC3N1CC2 (configuration not stated)
inactive: [1] 100 % of control
